Results from ChEMBL document CHEMBL3758170, “From indole to pyrrole, furan, thiophene and pyridine: Search for novel small molecule inhibitors of bacterial transcription initiation complex formation” (Bioorg Med Chem, 2016).
Calls of active or inactive are those of the source. The rule behind the calls is not given here.

Tests used:
[1] = tested on: Bacillus subtilis; assay: Antibacterial activity against Bacillus subtilis 168 assessed as growth inhibition at 200 uM measured every 10 mins for 16 hrs by FLUOstar Optima plate reader analysis relative to control; assay type: functional; conditions: for inhibition of growth at 200 µM: read-out: GI
[2] = tested on: BL21-DE3; assay: Inhibition of Bacillus subtilis C-terminal GST-tagged RNAP beta'-CH expressed in Escherichia coli BL21 (DE3) cells binding interaction with Escherichia coli sigma-70/Bacillus subtilis full length SigmaA2.2 expressed in Escherichia coli C41 (DE3) cells using TMB as substrate at 15 uM preincubated for 1 hr followed by substrate addition by ELISA relative to control
[3] = tested on: Escherichia coli; assay: Antibacterial activity against Escherichia coli DH5[alpha] assessed as growth inhibition at 200 uM measured every 10 mins for 16 hrs by FLUOstar Optima plate reader analysis relative to control; assay type: functional; conditions: for inhibition of growth at 200 µM: read-out: GI
[4] = Solubility of compound in Luria-Bertani medium at 200 uM; assay type: physicochemical
[5] = tested on: Bacillus subtilis; assay: Antibacterial activity against Bacillus subtilis 168 assessed as inhibition of exponential phase of bacterial growth at 200 uM measured every 10 mins for 16 hrs by FLUOstar Optima plate reader analysis relative to control; assay type: functional; conditions: read-out: GI
[6] = tested on: Escherichia coli; assay: Antibacterial activity against Escherichia coli DH5[alpha] assessed as inhibition of exponential phase of bacterial growth at 200 uM measured every 10 mins for 16 hrs by FLUOstar Optima plate reader analysis relative to control; assay type: functional; conditions: read-out: GI

Compound	growth inhibition (GI) [1]	inhibition [2]	inhibition of growth at 200 µM [3] [%]	solubility [4]	inhibition of growth at 200 µM [5] [%]	inhibition of growth at 200 µM [1] [%]	growth inhibition (GI) [3]	inhibition of growth at 200 µM [6] [%]
O=C(N/N=C/c1cccs1)c1ccco1	inactive	29%	23	–	–	–	–	–
COc1cc(OC)c2c(-c3ccc(Br)cc3)c[nH]c2c1C(=O)N/N=C/c1cccs1	inactive	inactive	29	soluble	–	–	–	–
O=C(N/N=C/c1ccc[nH]1)c1ccncc1Br	inactive	9%	7	soluble	–	–	–	–
COc1cc(OC)c2c(C)c(C(=O)NNC(=O)c3c(OC)cc(OC)c4c(-c5ccc(Cl)cc5)c[nH]c34)[nH]c2c1	–	72%	45	–	–	–	–	–
O=C(N/N=C/c1ccc[nH]1)c1ccnc(Br)c1	inactive	8%	53	soluble	–	–	–	–
COc1cc(OC)c2c(-c3ccc(Br)cc3)c[nH]c2c1C(=O)NNC(=O)c1ccncc1Br	–	3%	14	soluble	52	–	–	–
COc1cc(OC)c2c(-c3ccc(Cl)cc3)c[nH]c2c1C(=O)NNC(=O)c1c(OC)cc(OC)c2c(-c3ccc(Cl)cc3)c[nH]c12	–	63%	–	–	–	30	–	–
COc1cc(OC)c2c(-c3ccc(Cl)cc3)c[nH]c2c1C(=O)N/N=C/c1cccs1	inactive	38%	–	soluble	–	–	inactive	–
O=C(N/N=C/c1ccco1)c1ccco1	inactive	3%	18	soluble	–	–	–	–
O=C(N/N=C/c1cccs1)c1ccncc1Br	–	8%	18	soluble	–	11	–	–
COc1cc(OC)c2c(-c3ccc(Br)cc3)c[nH]c2c1C(=O)N/N=C/c1ccco1	inactive	33%	16	soluble	–	–	–	–
COc1cc(OC)c2c(-c3ccc(Br)cc3)c[nH]c2c1C(=O)NNC(=O)c1ccnc(Cl)c1	inactive	17%	15	soluble	–	–	–	–
O=C(N/N=C/c1cc(Br)cs1)c1cccs1	inactive	36%	23	soluble	–	–	–	–
O=C(N/N=C/c1ccco1)c1ccc[nH]1	inactive	8%	3	soluble	–	–	–	–
COc1cnc(Cl)cc1C(=O)NNC(=O)c1c(OC)cc(OC)c2c(-c3ccc(Br)cc3)c[nH]c12	–	17%	24	soluble	–	13	–	–
CO[C@H]1/C=C/O[C@@]2(C)Oc3c(C)c(O)c4c(O)c(c(/C=N/N5CCN(C)CC5)c(O)c4c3C2=O)NC(=O)/C(C)=C\C=C\[C@H](C)[C@H](O)[C@@H](C)[C@@H](O)[C@@H](C)[C@H](OC(C)=O)[C@@H]1C [RIFAMPIN]	–	–	98	–	–	100	–	–
COc1cnc(Cl)cc1C(=O)NNC(=O)c1c(OC)cc(OC)c2c(-c3ccc(Cl)cc3)c[nH]c12	–	28%	26	soluble	37	–	–	–
O=C(N/N=C/c1cccs1)c1cccs1	inactive	27%	–	–	–	–	–	56
COc1cc(OC)c2c(-c3ccc(Cl)cc3)c[nH]c2c1C(=O)NNC(=O)c1ccnc(Br)c1	–	24%	–	soluble	25	–	inactive	–
COc1cc(OC)c2c(-c3ccc(Cl)cc3)c[nH]c2c1C(=O)NNC(=O)c1ccc[nH]1	inactive	inactive	–	soluble	–	–	inactive	–

Compound	growth inhibition (GI) [1]	inhibition [2]	inhibition of growth at 200 µM [3] [%]	solubility [4]	inhibition of growth at 200 µM [5] [%]	inhibition of growth at 200 µM [1] [%]	growth inhibition (GI) [3]	inhibition of growth at 200 µM [6] [%]
O=C(N/N=C/c1ccc[nH]1)c1ccc[nH]1	–	41%	21	soluble	–	30	–	–
COc1cc(OC)c2c(-c3ccc(Br)cc3)c[nH]c2c1C(=O)NNC(=O)c1ccnc(Br)c1	–	20%	–	soluble	29	–	inactive	–
COc1cc(OC)c2c(-c3ccc(Cl)cc3)c[nH]c2c1C(=O)NNC(=O)c1cccs1	inactive	inactive	–	soluble	–	–	inactive	–
COc1cc(OC)c2c(-c3ccc(Cl)cc3)c[nH]c2c1C(=O)N/N=C/c1ccco1	–	34%	–	soluble	–	7	–	37
COc1cc(OC)c2c(-c3ccc(Br)cc3)c[nH]c2c1C(=O)NNC(=O)c1cccs1	inactive	inactive	–	soluble	–	–	inactive	–
O=C(N/N=C/c1ccc[nH]1)c1cccs1	–	34%	22	soluble	–	33	–	–
COc1cc(OC)c2c(-c3ccc(Cl)cc3)c[nH]c2c1C(=O)NNC(=O)c1ccncc1Br	–	11%	–	soluble	74	–	–	47
COc1cc(OC)c2c(-c3ccc(Cl)cc3)c[nH]c2c1C(=O)NNC(=O)c1ccnc(Cl)c1	–	14%	10	soluble	–	17	–	–
O=C(N/N=C/c1cccs1)c1ccc[nH]1	inactive	20%	–	soluble	–	–	–	26
O=C(N/N=C/c1cccs1)c1ccnc(Br)c1	–	6%	59	soluble	–	35	–	–
O=C(N/N=C/c1cccs1)c1ccnc(Cl)c1	–	30%	30	soluble	29	–	–	–
O=C(N/N=C/c1cc(Br)cs1)c1ccco1	inactive	inactive	7	soluble	–	–	–	–
COc1cc(OC)c2c(-c3ccc(Br)cc3)c[nH]c2c1C(=O)N/N=C/c1ccc[nH]1	inactive	46%	–	soluble	–	–	inactive	–
O=C(N/N=C/c1ccco1)c1ccnc(Cl)c1	inactive	32%	3	soluble	–	–	–	–
O=C(N/N=C/c1ccco1)c1cccs1	–	18%	–	soluble	–	4	–	50
O=C(N/N=C/c1ccc[nH]1)c1ccnc(Cl)c1	–	31%	22	soluble	–	6	–	–
O=C(N/N=C/c1cc(Br)cs1)c1ccc[nH]1	–	27%	–	soluble	73	–	–	51
O=C(N/N=C/c1ccc[nH]1)c1ccco1	inactive	21%	–	soluble	–	–	inactive	–
COc1cc(OC)c2c(-c3ccc(Br)cc3)c[nH]c2c1C(=O)NNC(=O)c1ccc[nH]1	inactive	inactive	–	soluble	–	–	inactive	–
